The experiment addresses Bmt5 (Saccharomyces cerevisiae, UniProt P40493). In words: biochemical.

Sequence of Bmt5 (P40493 whole entry): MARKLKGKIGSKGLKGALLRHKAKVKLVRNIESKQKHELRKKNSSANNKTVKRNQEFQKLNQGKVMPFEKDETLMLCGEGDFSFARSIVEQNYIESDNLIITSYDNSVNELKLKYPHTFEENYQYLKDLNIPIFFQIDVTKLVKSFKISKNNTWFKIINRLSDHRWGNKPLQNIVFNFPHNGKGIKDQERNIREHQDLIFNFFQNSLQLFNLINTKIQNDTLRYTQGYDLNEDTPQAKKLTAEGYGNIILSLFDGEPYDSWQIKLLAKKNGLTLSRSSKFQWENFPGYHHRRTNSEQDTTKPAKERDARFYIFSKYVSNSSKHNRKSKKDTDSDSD

What is called Kd is the free concentration of one partner at which half of the binding sites on the other are occupied at equilibrium, for simple one-to-one binding. A low value points to higher affinity. Take `C[S+](CC[C@H](N)C(=O)O)C[C@H]1O[C@@H](n2cnc3c(N)ncnc32)[C@H](O)[C@@H]1O` (stereo partly shown) [SAM]: the equilibrium dissociation constant (Kd) turned out to be 109 ± 10.8 µM.

For the origin of these results see publication PMC3950682 (Nucleic Acids Research, 2013).
